Counter-ions that a name gives are not always drawn.
Assays:
Adrenergic alpha2A = Adrenergic alpha2A (Homo sapiens, UniProt P08913); test: Adrenergic alpha2A binding
Source text: (§1) Further, the compounds of the invention may be tested in binding assays and functional activity assays by well known methods for other physiologically important receptors such as, but not limited to, the hERO channel, other serotonin receptors (specifically 5-HT1B, 5-HT1D, receptors, lack of agonist activity at 5-HT2B receptors, 5-HT2C, 5-HT5, 5-HT6, and 5-HT7 receptors), dopaminergic receptors (specifically D1, D2, and D3), GABAA receptors, adrenergic receptors and monoamine transporters.

Rats = test: Rat sleep studies, coadministration with citalopram; type: in vivo; details: coadministered with citalopram
Plasma clearance, dog = type: in vivo; details: male, Beagle, 1 mg/kg, intravenous, 1 mL/kg of 1.0 mg/mL
Experimental: Male Beagle dogs (body weight range 10-12 kg) are obtained from Marshall Bioresources, USA. Test compound is administered intravenously in solution (1 mL/kg) in 20% Captisol® in 22.5 mM phosphate buffer, pH 2, at a final drug concentration of 1.0 mg/mL (free base equivalents). Blood samples are obtained from the jugular vein over 24 hr. Samples of plasma are obtained by centrifugation and stored frozen (−20° C.) prior to analysis. Frozen plasma samples are thawed to room temperature for bioanalysis of concentrations of test compound. A related internal standard compound in acetonitrile/methanol (1:1, v/v) is added to all samples of plasma (1:1, v/v). The samples are centrifuged to remove precipitated protein prior to analysis. The supernatants are analysed by injection and rapid gradient elution on a Javelin Betasil C18 column (20×2.1 mm cartridge, Mobile phase A: Water/1 M NH4HCO3, 2000:10 v/v, Mobile Phase B: MeOH/1 M NH4HCO3, 2000:10 v/v). The eluted analytes are detected by LC-MS-MS analysis using a Sciex API 4000 triple quadrupole mass spectrometer. Concentrations of compound are determined from standards prepared and analysed under identical conditions. Clearance is calculated using non-compartmental analysis in Watson 7.4, Thermo Fisher Scientific, Inc.

Adrenergic alpha1B = Adrenergic alpha1B (Homo sapiens, UniProt P35368); test: Adrenergic alpha1B binding
Source text: as §1

5-HT2B = 5-HT2B (Homo sapiens, UniProt P41595); test: 5-HT2B binding
Source text: as §1

5-HT7 = 5-HT7 (Homo sapiens, UniProt P34969); test: 5-HT7 binding
Source text: as §1

Dopamine D3 = Dopamine D3 (Homo sapiens, UniProt P35462); test: Dopamine D3 binding
Source text: as §1

[1] = molecular target: T1, recombinant 5-HT2A receptor (human) (Homo sapiens, UniProt P28223); test: 5-HT2A competition binding assay ([3H]-Ketanserin, SPA)
T1 construct: expressed in transfected cells; host or cells: AV-12 (membranes)
Experimental: [^3H]-Ketanserin binding experiments are carried out in SPA 96-well format. Membranes used in this assay are prepared from AV-12 cells stably expressing recombinant 5-HT2A receptor (human). The incubation is initiated by the addition of a mixture of WGA YSi SPA beads (1 mg/well, Perkin Elmer (MA, USA), RPNQ0011) and 2 μg membranes to assay buffer (67 mM Tris, 0.5 mM EDTA; pH 7.6) containing 3.1 nM [^3H]-Ketanserin and varying concentrations of the test compound (10 point concentration response curves). Non-specific binding is determined in the presence of 20 μM 1-(1-Naphthyl) piperazine. Samples are incubated for 4 hr. at room temperature (22° C.) and then read in a Microbeta Trilux.
(§2) Curves are evaluated using a 4-parameter logistic nonlinear equation to obtain the concentration of competitor causing 50% inhibition of radioligand binding (IC50). Equilibrium dissociation constants (Ki) are calculated according to the equation Ki=IC50/(1+L/Kd), where L equals the concentration of radioligand used in the experiment and Kd equals the equilibrium dissociation constant of the radioligand for the receptor, determined from standard saturation analysis or homologous competition experiments. Reported values for Ki, where n values are indicated, are shown as geometric mean±the standard error of the mean (SEM), with the number of replicate determinations indicated by n. […]

Adrenergic alpha1A = Adrenergic alpha1A (Homo sapiens, UniProt P35348); test: Adrenergic alpha1A binding
Source text: as §1

Norepinephrine Transport = Norepinephrine Transport (Homo sapiens, UniProt P23975); test: Norepinephrine transporter binding
Source text: as §1

[2] = molecular target: T2, recombinant H1 receptor (human) (Homo sapiens, UniProt P35367); test: H1 competition binding assay ([3H]-Pyrilamine, SPA)
T2 construct: expressed in transfected cells; host or cells: HEK-293 (membranes)
Experimental: [^3H]-Pyrilamine binding experiments are carried out in SPA (scintillation proximity assay) 96-well format. Membranes used in this assay are prepared from HEK-293 cells stably expressing recombinant H1 receptor (human). The incubation is initiated by the addition of a mixture of WGA PVT SPA beads (1 mg/well, Perkin Elmer (MA, USA) RPNQ0001) and 3 μg membranes to assay buffer (67 mM Tris; pH 7.6) containing 3.5 nM [^3H]-Pyrilamine and varying concentrations of the test compound (10 point concentration response curves). Non-specific binding is determined in the presence of 10 μM Triprolidine. Samples are incubated for 4 hr. at room temperature (22° C.) and then read in a Microbeta Trilux.
as §2

hERG Channel = hERG Channel (Homo sapiens, UniProt Q12809); test: hERG channel
Source text: as §1

Chain of Dopamine D3 (P35462 whole entry): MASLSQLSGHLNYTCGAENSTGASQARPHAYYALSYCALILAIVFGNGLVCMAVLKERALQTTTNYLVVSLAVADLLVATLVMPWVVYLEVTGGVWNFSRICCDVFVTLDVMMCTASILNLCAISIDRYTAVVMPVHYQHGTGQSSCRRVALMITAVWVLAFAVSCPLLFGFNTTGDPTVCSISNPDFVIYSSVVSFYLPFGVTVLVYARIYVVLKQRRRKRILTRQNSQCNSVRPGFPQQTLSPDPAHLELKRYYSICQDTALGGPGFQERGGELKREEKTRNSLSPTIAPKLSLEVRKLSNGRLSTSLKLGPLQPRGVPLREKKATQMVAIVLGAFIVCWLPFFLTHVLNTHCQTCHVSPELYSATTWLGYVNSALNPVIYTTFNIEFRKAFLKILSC
Chain of 5-HT2B (P41595 whole entry, species assumed): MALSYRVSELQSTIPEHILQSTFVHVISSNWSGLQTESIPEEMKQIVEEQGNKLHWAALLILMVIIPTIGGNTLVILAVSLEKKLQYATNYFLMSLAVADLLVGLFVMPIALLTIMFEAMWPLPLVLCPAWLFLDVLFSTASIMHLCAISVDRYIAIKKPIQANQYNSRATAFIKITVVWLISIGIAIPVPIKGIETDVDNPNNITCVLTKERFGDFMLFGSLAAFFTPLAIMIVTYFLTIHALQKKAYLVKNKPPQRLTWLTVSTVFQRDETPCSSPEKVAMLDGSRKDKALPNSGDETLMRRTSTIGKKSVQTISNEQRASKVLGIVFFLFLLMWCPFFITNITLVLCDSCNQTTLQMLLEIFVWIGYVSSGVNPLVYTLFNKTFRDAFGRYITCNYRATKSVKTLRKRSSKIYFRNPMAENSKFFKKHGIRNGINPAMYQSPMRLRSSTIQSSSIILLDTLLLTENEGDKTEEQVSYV
T1 sequence (P28223 whole entry): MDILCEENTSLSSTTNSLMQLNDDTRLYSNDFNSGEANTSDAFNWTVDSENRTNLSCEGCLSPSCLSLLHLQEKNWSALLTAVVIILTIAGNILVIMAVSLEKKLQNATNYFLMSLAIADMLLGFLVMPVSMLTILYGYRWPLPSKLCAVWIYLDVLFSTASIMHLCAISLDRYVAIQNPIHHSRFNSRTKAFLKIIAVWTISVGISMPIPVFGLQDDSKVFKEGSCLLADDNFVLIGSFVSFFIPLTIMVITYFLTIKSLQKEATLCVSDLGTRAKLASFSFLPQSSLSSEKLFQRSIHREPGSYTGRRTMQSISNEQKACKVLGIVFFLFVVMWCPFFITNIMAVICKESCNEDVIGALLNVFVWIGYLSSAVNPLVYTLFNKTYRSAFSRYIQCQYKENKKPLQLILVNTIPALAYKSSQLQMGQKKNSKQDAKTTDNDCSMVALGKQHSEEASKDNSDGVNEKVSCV
Chain of Adrenergic alpha1B (P35368 whole entry): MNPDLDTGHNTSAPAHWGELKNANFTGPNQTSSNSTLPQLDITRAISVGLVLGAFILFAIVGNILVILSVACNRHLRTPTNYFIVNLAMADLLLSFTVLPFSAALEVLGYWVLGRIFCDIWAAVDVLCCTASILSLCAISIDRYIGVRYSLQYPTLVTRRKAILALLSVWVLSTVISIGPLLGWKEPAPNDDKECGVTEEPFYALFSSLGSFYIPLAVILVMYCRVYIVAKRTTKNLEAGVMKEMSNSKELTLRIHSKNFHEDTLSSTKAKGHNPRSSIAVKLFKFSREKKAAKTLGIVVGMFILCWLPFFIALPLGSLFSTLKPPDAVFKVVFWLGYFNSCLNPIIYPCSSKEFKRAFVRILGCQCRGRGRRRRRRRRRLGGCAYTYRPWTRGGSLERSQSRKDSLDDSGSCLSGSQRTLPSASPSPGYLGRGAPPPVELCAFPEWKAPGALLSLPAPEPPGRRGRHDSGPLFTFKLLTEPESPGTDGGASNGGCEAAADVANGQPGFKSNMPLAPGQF
Chain of 5-HT7 (P34969 whole entry, species assumed): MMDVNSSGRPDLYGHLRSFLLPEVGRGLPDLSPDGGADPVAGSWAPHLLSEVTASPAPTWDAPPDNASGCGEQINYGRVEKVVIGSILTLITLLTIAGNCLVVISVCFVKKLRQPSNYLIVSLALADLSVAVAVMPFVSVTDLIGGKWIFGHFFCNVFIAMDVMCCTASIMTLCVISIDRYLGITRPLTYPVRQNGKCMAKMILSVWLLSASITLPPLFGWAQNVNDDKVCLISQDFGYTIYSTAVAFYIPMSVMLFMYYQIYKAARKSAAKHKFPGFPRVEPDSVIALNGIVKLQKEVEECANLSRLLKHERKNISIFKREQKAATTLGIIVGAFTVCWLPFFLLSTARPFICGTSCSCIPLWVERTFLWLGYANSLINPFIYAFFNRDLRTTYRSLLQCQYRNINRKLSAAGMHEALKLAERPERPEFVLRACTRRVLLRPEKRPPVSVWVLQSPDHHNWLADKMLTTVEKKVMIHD
Chain of Norepinephrine Transport (P23975 whole entry): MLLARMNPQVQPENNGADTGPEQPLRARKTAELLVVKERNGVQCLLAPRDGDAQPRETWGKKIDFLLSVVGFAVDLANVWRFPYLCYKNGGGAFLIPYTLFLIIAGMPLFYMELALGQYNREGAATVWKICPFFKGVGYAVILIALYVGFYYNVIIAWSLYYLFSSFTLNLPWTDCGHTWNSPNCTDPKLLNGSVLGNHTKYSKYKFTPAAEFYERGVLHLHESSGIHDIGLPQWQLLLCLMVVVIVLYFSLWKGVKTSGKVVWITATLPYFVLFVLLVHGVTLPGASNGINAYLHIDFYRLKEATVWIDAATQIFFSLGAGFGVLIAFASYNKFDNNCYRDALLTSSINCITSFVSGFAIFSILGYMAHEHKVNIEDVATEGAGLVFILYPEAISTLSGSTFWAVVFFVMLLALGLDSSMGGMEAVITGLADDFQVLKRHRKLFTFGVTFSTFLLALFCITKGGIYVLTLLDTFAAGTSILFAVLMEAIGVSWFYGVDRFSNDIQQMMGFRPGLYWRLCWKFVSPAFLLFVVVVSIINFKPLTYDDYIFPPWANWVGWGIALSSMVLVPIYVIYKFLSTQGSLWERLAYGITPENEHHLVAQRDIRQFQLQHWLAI
Chain of hERG Channel (Q12809 whole entry): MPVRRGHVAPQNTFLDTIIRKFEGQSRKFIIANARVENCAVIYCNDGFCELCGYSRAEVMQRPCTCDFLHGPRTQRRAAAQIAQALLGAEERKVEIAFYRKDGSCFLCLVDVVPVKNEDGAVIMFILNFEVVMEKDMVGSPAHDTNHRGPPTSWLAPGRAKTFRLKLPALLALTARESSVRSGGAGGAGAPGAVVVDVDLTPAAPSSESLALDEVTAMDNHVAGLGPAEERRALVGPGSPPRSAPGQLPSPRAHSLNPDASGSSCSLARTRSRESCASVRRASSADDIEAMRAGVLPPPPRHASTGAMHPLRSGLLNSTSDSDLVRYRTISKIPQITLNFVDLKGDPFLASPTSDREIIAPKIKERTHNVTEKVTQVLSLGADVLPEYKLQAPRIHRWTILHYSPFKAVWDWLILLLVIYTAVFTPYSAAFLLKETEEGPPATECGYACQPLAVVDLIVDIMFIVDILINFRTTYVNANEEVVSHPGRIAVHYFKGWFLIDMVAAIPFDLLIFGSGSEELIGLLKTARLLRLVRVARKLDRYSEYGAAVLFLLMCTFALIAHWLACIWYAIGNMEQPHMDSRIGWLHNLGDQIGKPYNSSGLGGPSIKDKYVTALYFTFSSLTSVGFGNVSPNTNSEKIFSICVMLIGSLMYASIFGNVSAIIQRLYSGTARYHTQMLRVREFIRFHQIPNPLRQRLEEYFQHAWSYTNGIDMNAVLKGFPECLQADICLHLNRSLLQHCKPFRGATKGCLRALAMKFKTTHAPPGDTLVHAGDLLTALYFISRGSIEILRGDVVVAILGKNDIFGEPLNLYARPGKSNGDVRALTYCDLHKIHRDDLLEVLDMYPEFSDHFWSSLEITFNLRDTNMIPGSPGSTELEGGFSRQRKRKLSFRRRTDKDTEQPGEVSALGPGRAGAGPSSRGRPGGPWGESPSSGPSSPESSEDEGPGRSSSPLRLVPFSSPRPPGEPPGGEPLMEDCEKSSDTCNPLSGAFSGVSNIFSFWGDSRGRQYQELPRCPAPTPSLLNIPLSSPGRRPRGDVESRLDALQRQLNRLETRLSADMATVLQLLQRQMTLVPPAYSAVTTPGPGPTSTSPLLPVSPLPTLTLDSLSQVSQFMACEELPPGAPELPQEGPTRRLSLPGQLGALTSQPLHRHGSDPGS
Chain of Adrenergic alpha2A (P08913 whole entry): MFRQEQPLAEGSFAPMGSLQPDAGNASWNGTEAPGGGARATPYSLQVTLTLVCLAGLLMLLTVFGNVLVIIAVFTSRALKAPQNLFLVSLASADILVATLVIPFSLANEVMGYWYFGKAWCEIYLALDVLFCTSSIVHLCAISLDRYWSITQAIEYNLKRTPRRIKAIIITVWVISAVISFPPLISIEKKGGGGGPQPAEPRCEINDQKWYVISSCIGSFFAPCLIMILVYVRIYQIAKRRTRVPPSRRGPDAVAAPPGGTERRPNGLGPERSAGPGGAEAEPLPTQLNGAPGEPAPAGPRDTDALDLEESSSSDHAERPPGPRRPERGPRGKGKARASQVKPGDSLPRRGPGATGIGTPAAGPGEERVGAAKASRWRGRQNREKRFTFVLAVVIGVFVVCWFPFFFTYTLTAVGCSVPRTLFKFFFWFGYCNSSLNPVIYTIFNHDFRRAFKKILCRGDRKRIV

Cc1ccc2c(c1)Oc1sc(C)cc1C(N1CCN(CC(C)(C)C(=O)O)CC1)=N2 [Example 2, 3-[4-(2,8-Dimethylthieno[2,3-b][1,5]benzoxazepin-4-yl)piperazin-1-yl]-2,2-dimethyl-propanoic acid dihydrochloride]
Ki (Adrenergic alpha2A): > 9020 nM
NREM sleep on coadministration with citalopram (Rats): significantly increase NREM sleep at significantly lower doses
clearance (Plasma clearance, dog): 2.8 mL/min/kg
Ki (Adrenergic alpha1B): > 16200 nM
Ki (5-HT2B): 95.8 nM
Ki (5-HT7): > 2060 nM
Ki (Dopamine D3): > 5660 nM
Ki [1]: 11.3 nM
Ki (Adrenergic alpha1A): > 10500 nM
Ki (Norepinephrine Transport): > 674 nM
Ki [2]: 131 nM
hERG Channel (hERG Channel): >100 µM
